Laboratory results taken from US20260007133A1, “HERBICIDAL COMPOSITION COMPRISING AZINE COMPOUNDS” (BASF SE, priority 2022, published 2026).
Where two headings read alike, the source gives them in different places.

Key:
Type in all cases: in vivo
Amaranthus retroflexus [1] = test: Greenhouse post-emergence (POST) herbicidal test on AMARE; settings: Amaranthus retroflexus, post-emergence
Procedure, shortened: (§1)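 Sow or transplant seedlings into loamy-sand pots; grow to 3–15 cm; spray aqueous suspension/emulsion of actives from a 5% by weight emulsion concentrate; hold at 10-25° C or 20-35° C depending on species; score injury 0–100 at 20 DAT.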

Lolium multiflorum = test: Greenhouse pre-emergence (PRE) herbicidal test on LOLMU; settings: Lolium multiflorum, pre-emergence
Procedure, shortened: (§2)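 Visual 0–100 rating at 20 days after treatment; 0 = normal growth, 100 = no emergence or complete kill of shoots. Pre-emergent application to seeded pots of loamy sand (~3.0% humus), species-dependent temperature 10-25° C or 20-35° C.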

Abutilon theophrasti [2] = test: Greenhouse pre-emergence (PRE) herbicidal test on ABUTH; settings: Abutilon theophrasti, pre-emergence
Procedure, shortened: as §2

Amaranthus retroflexus [3] = test: Greenhouse pre-emergence (PRE) herbicidal test on AMARE; settings: Amaranthus retroflexus, pre-emergence
Description: The culture containers used were plastic pots containing loamy sand with approximately 3.0% of humus as substrate. The seeds of the test plants were sown separately for each species.
The containers were irrigated gently to promote germination and growth and subsequently covered with transparent plastic hoods until the plants had rooted.
Depending on the species, the plants were kept at 10-25° C. and 20-35° C., respectively.
The test period extended over 2 to 4 weeks. During this time, the plants were tended and their response to the individual treatments was evaluated.
Evaluation was carried out using a scale from 0 to 100. 100 means no emergence of the plants, or complete destruction of at least the above-ground parts, and 0 means no damage or normal course of growth. A good herbicidal activity is given at values of at least 70, and very good herbicidal activity is given at values of at least 85.
As indicated application was either post emergent (POST) at the respective growth stage (GS) of the weed (BBCH code), or pre-emergent (PRE). […]

Abutilon theophrasti [4] = test: Greenhouse post-emergence (POST) herbicidal test on ABUTH; settings: Abutilon theophrasti, post-emergence
Procedure, shortened: as §1

Echinochloa crus-galli [5] = test: Greenhouse pre-emergence (PRE) herbicidal test on ECHCG; settings: Echinochloa crus-galli, pre-emergence
Digitaria sanguinalis = test: Greenhouse post-emergence (POST) herbicidal test on DIGSA; settings: Digitaria sanguinalis, post-emergence
Procedure, shortened: as §1

Commelina benghalensis = test: Greenhouse pre-emergence (PRE) herbicidal test on COMBE; settings: Commelina benghalensis, pre-emergence
Procedure, shortened: as §2

Euphorbia heterophylla [6] = test: Greenhouse pre-emergence (PRE) herbicidal test on EPHHL; settings: Euphorbia heterophylla, pre-emergence
Procedure, shortened: as §2

Alopecurus myosuroides = test: Greenhouse pre-emergence (PRE) herbicidal test on ALOMY; settings: Alopecurus myosuroides, pre-emergence
Procedure, shortened: as §2

Ambrosia artemisiifolia = test: Greenhouse pre-emergence (PRE) herbicidal test on AMBEL; settings: Ambrosia artemisiifolia, pre-emergence
Echinochloa crus-galli [7] = test: Greenhouse post-emergence (POST) herbicidal test on ECHCG; settings: Echinochloa crus-galli, post-emergence
Procedure, shortened: as §1

Geranium pusillum = test: Greenhouse post-emergence (POST) herbicidal test on GERPU; settings: Geranium pusillum, post-emergence
Procedure, shortened: as §1

Euphorbia heterophylla [8] = test: Greenhouse post-emergence (POST) herbicidal test on EPHHL; settings: Euphorbia heterophylla, post-emergence
Procedure, shortened: as §1

Setaria viridis = test: Greenhouse pre-emergence (PRE) herbicidal test on SETVI; settings: Setaria viridis, pre-emergence, 480 h, PRE, 20 DAT
Procedure, shortened: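 Damage was rated visually on a 0 to 100 scale at 20 days after treatment, where 0 meant normal growth and 100 meant no emergence or complete kill of above-ground parts. Compounds were applied in water to freshly sown loamy-sand pots.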

[9] = 480 h, PRE, 0.25 gai/ha, 20 DAT
[10] = 480 h, POST, 0.25 gai/ha, 20 DAT

## CS(=O)(=O)NC(=O)c1cc(Oc2ccc(C(F)(F)F)cc2Cl)ccc1[N+](=O)[O-] [Fomesafen, fomesafen]
Amaranthus retroflexus [1]; 480 h, POST, AMARE, use rate 10 gai/ha, 20 DAT, read-out: solo application % activity
  inhibition at 10 g/ha: 25%
Lolium multiflorum; 480 h, PRE, LOLMU, use rate 2.5 gai/ha, 20 DAT, read-out: solo application % activity
  inhibition at […]: 0%
Lolium multiflorum; 480 h, PRE, LOLMU, use rate 10 gai/ha, 20 DAT, read-out: solo application % activity
  inhibition at 10 g/ha: 0%
Abutilon theophrasti [2]; 480 h, PRE, ABUTH, use rate 2.5 gai/ha, 20 DAT, read-out: solo application % activity
  inhibition at […]: 0%
Abutilon theophrasti [2]; 480 h, PRE, ABUTH, use rate 10 gai/ha, 20 DAT, read-out: solo application % activity
  inhibition at 10 g/ha: 0%
Amaranthus retroflexus [3]; 480 h, PRE, AMARE, use rate 2.5 gai/ha, 20 DAT, read-out: solo application % activity
  inhibition at […]: 0%
Amaranthus retroflexus [3]; 480 h, PRE, AMARE, use rate 10 gai/ha, 20 DAT, read-out: solo application % activity
  inhibition at 10 g/ha: 25%
Abutilon theophrasti [4]; 480 h, POST, ABUTH, use rate 2.5 gai/ha, 20 DAT, read-out: solo application % activity
  inhibition at […]: 20%
Abutilon theophrasti [4]; 480 h, POST, ABUTH, use rate 10 gai/ha, 20 DAT, read-out: solo application % activity
  inhibition at 10 g/ha: 20%
Echinochloa crus-galli [5]; 480 h, PRE, ECHCG, use rate 2.5 gai/ha, 20 DAT, read-out: solo application % activity
  inhibition at […]: 0%
Echinochloa crus-galli [5]; 480 h, PRE, ECHCG, use rate 10 gai/ha, 20 DAT, read-out: solo application % activity
  inhibition at 10 g/ha: 0%
Digitaria sanguinalis; 480 h, POST, DIGSA, use rate 10 gai/ha, 20 DAT, read-out: solo application % activity
  inhibition at 10 g/ha: 25%
Commelina benghalensis; 480 h, PRE, COMBE, use rate 2.5 gai/ha, 20 DAT, read-out: solo application % activity
  inhibition at […]: 10%
Commelina benghalensis; 480 h, PRE, COMBE, use rate 10 gai/ha, 20 DAT, read-out: solo application % activity
  inhibition at 10 g/ha: 10%
Euphorbia heterophylla [6]; 480 h, PRE, EPHHL, use rate 2.5 gai/ha, 20 DAT, read-out: solo application % activity
  inhibition at […]: 0%
Euphorbia heterophylla [6]; 480 h, PRE, EPHHL, use rate 10 gai/ha, 20 DAT, read-out: solo application % activity
  inhibition at 10 g/ha: 0%
Alopecurus myosuroides; 480 h, PRE, ALOMY, use rate 2.5 gai/ha, 20 DAT, read-out: solo application % activity
  inhibition at […]: 0%
Alopecurus myosuroides; 480 h, PRE, ALOMY, use rate 10 gai/ha, 20 DAT, read-out: solo application % activity
  inhibition at 10 g/ha: 0%
Ambrosia artemisiifolia; 480 h, PRE, AMBEL, use rate 2.5 gai/ha, 20 DAT, read-out: solo application % activity
  inhibition at […]: 0%
Ambrosia artemisiifolia; 480 h, PRE, AMBEL, use rate 10 gai/ha, 20 DAT, read-out: solo application % activity
  inhibition at 10 g/ha: 0%

## CCC(=O)Nc1ccc(Cl)c(Cl)c1 [Propanil, propanil]
Echinochloa crus-galli [7]; 432 h, POST, ECHCG, 250 gai/ha, 18 DAT, read-out: % activity solo application
  inhibition at 250 g/ha: 0%
Echinochloa crus-galli [7]; 432 h, POST, ECHCG, 500 gai/ha, 18 DAT, read-out: % activity solo application
  inhibition at 500 g/ha: 0%
Echinochloa crus-galli [7]; 432 h, read-out: % activity
  pest or weed control at 250 g/ha: 0%
  pest or weed control at 500 g/ha: 0%
Amaranthus retroflexus [1]; 432 h, read-out: % activity
  pest or weed control at 250 g/ha: 0%
  pest or weed control at 500 g/ha: 0%
Lolium multiflorum; 432 h, PRE, LOLMU, 250 gai/ha, 18 DAT, read-out: % activity solo application
  inhibition at 250 g/ha: 0%
Lolium multiflorum; 432 h, PRE, LOLMU, 500 gai/ha, 18 DAT, read-out: % activity solo application
  inhibition at 500 g/ha: 0%
Lolium multiflorum; 432 h, read-out: % activity
  pest or weed control at 250 g/ha: 0%
  pest or weed control at 500 g/ha: 0%
Geranium pusillum; 432 h, read-out: % activity
  pest or weed control at 500 g/ha: 40%
Abutilon theophrasti [2]; 432 h, read-out: % activity
  pest or weed control at 500 g/ha: 0%
Amaranthus retroflexus [3]; 432 h, read-out: % activity
  pest or weed control at 500 g/ha: 0%
Abutilon theophrasti [4]; 432 h, read-out: % activity
  pest or weed control at 250 g/ha: 0%
  pest or weed control at 500 g/ha: 5%
Euphorbia heterophylla [8]; 432 h, read-out: % activity
  pest or weed control at 250 g/ha: 0%
Echinochloa crus-galli [5]; 432 h, read-out: % activity
  pest or weed control at 250 g/ha: 0%
  pest or weed control at 500 g/ha: 0%
Digitaria sanguinalis; 432 h, POST, DIGSA, 250 gai/ha, 18 DAT, read-out: % activity solo application
  inhibition at 250 g/ha: 10%
Digitaria sanguinalis; 432 h, read-out: % activity
  pest or weed control at 250 g/ha: 10%
  pest or weed control at 500 g/ha: 10%
Commelina benghalensis; 432 h, read-out: % activity
  pest or weed control at 250 g/ha: 0%
Euphorbia heterophylla [6]; 432 h, read-out: % activity
  pest or weed control at 250 g/ha: 0%
Alopecurus myosuroides; 432 h, read-out: % activity
  pest or weed control at 250 g/ha: 0%
  pest or weed control at 500 g/ha: 0%
Ambrosia artemisiifolia; 432 h, read-out: % activity
  pest or weed control at 250 g/ha: 0%
  pest or weed control at 500 g/ha: 0%

## CCOC(=O)COc1ccccc1Oc1nc(-n2c(=O)cc(C(F)(F)F)n(C)c2=O)c(F)cc1Cl [2-[2-[[3-chloro-6-[3,6-dihydro-3-methyl-2,6-dioxo-4-(trifluoromethyl)-1(2H)-pyrimidinyl]-5-fluoro-2-pyridinyl]oxy]phenoxy]acetic acid ethyl ester]
Echinochloa crus-galli [7]; 480 h, ECHCG POST, 20 DAT, use rate 0.25 gai/ha
  inhibition at […]: 15%
Echinochloa crus-galli [7]; 480 h, ECHCG POST, 20 DAT, use rate 0.5 gai/ha, read-out: % activity
  inhibition at 0.5 g/ha: 80%
Setaria viridis; 0.25 gai/ha
  pest or weed control at […]: 0%
Setaria viridis; 0.5 gai/ha
  pest or weed control at 0.5 g/ha: 0%
Lolium multiflorum; 480 h, LOLMU PRE, 20 DAT, use rate 0.25 gai/ha, read-out: % activity
  inhibition at […]: 0%
Lolium multiflorum; [9]
  pest or weed control at […]: 0%
Lolium multiflorum; 480 h, PRE, 0.5 gai/ha, 20 DAT
  pest or weed control at 0.5 g/ha: 0%
Geranium pusillum; 480 h, GERPU POST, 20 DAT, use rate 0.5 gai/ha
  inhibition at 0.5 g/ha: 85%
Geranium pusillum; 480 h, POST, 0.5 gai/ha, 20 DAT
  pest or weed control at 0.5 g/ha: 85%
Abutilon theophrasti [2]; [9]
  pest or weed control at […]: 0%
Abutilon theophrasti [2]; 480 h, PRE, 0.5 gai/ha, 20 DAT
  pest or weed control at 0.5 g/ha: 10%
Amaranthus retroflexus [3]; 480 h, PRE, 0.5 gai/ha, 20 DAT
  pest or weed control at 0.5 g/ha: 0%
Euphorbia heterophylla [8]; 480 h, EPHHL POST, 20 DAT, use rate 0.25 gai/ha
  inhibition at […]: 50%
Euphorbia heterophylla [8]; [10]
  pest or weed control at […]: 50%
Digitaria sanguinalis; 480 h, DIGSA POST, 20 DAT, use rate 0.5 gai/ha
  inhibition at 0.5 g/ha: 80%
Digitaria sanguinalis; [10]
  pest or weed control at […]: 15%
Commelina benghalensis; 480 h, COMBE PRE, 20 DAT, use rate 0.25 gai/ha, read-out: % activity
  inhibition at […]: 0%
Commelina benghalensis; 480 h, COMBE PRE, 20 DAT, use rate 0.5 gai/ha
  inhibition at 0.5 g/ha: 0%
Commelina benghalensis; 480 h, PRE, 0.5 gai/ha, 20 DAT
  pest or weed control at 0.5 g/ha: 0%
Euphorbia heterophylla [6]; 480 h, EPHHL PRE, 20 DAT, use rate 0.25 gai/ha, read-out: % activity
  inhibition at […]: 5%
Euphorbia heterophylla [6]; 480 h, EPHHL PRE, 20 DAT, use rate 0.5 gai/ha, read-out: % activity
  inhibition at 0.5 g/ha: 0%
Euphorbia heterophylla [6]; [9]
  pest or weed control at […]: 5%
Euphorbia heterophylla [6]; 480 h, PRE, 0.5 gai/ha, 20 DAT
  pest or weed control at 0.5 g/ha: 0%
Ambrosia artemisiifolia; 480 h, AMBEL PRE, 20 DAT, use rate 0.25 gai/ha, read-out: % activity
  inhibition at […]: 0%
Ambrosia artemisiifolia; 480 h, AMBEL PRE, 20 DAT, use rate 0.5 gai/ha, read-out: % activity
  inhibition at 0.5 g/ha: 0%
Ambrosia artemisiifolia; [9]
  pest or weed control at […]: 0%
